The results in this text go back to ChEMBL document CHEMBL3507680, “University of Dundee, Gates Library screen for HepG2 cell viability”.

The nature of the data set: Human HepG2 cell viability assay in 384 well format. It counts as toxicity, cell-based. Also on record: dose 125 nL, time 70.5 hour; concentration not given beside the values. The settings on record: HepG2 cells, read-out: Inhibition.
Turning to `CCCn1ncc(C(=O)NCc2n[nH]c3c2CCCCC3)c1C`, the cytotoxicity at 70.5 h is -13.2%.

`CCC1c2cccn2CCN1C(=O)c1cc(OC)nc(OC)n1` (stereo not drawn): the cytotoxicity at 70.5 h was 44.1%.

As to `CNC(=O)C(C)NC(=O)c1cc(COc2ccc(OC)cc2Cl)[nH]n1` (stereo not drawn), the cytotoxicity at 70.5 h was -2.95%.

For `CCN1CCN(C(=O)CCC2CCN(C(C)CSC)CC2)CC1` (stereo not drawn), the cytotoxicity at 70.5 h was found to be 3.5%.

With `CNc1cc(-c2ccccc2CN)c2cc[nH]c2n1`, the cytotoxicity at 70.5 h came out at 3.36%.

As to `CN(C)C(=O)c1cccnc1N1CCOC(c2ccc(Cl)cc2)C1` (stereo not drawn), the cytotoxicity at 70.5 h is -12.8%.

On to `CN(C)C(=O)NCc1cc2n(n1)CCCN(CC1CCCNC1)C2` (stereo not drawn), for which the cytotoxicity at 70.5 h turned out to be 29.9%.

As for `Cc1cc(NCCc2c(C)n[nH]c2C)nc(-c2cccnc2)n1`, the cytotoxicity at 70.5 h was 20.8%.

`Cc1nn(CC(=O)NCc2cc3n(n2)CCCN(CC(C)C)C3)cc1Cl`: the cytotoxicity at 70.5 h amounted to 9.44%.

`O=C(CCn1cnnn1)N1CCCC(CO)(CCCc2ccccc2)C1` (stereo not drawn): the cytotoxicity at 70.5 h was -1.63%.

On to `O=C(NCc1nncn1C1CCCCC1)C1COc2ccccc2O1` (stereo not drawn), for which the cytotoxicity at 70.5 h is -7.82%.

As to `Nc1nnc(CCNC(=O)c2cccc(C3CCCNC3)c2)s1` (stereo not drawn), the cytotoxicity at 70.5 h is -10.1%.

As to `Cc1cnccc1NCCNC(=O)[C@H]1CNC[C@H](C(=O)N2CCCC2)C1`, the cytotoxicity at 70.5 h was -4.18%.

With `COC(=O)c1cc(OCC2CCC2)cc(C(=O)N[C@H](C)C(N)=O)c1`, the cytotoxicity at 70.5 h was -10.2%.

For `CC(=O)N1CCc2[nH]cnc2C1C1=CCCN(CCn2cccc2)C1` (stereo not drawn), the cytotoxicity at 70.5 h is -4.34%.

Turning to `Cc1cc(C(=O)N[C@H]2Cc3ccccc3[C@@H]2N)c(=O)[nH]c1C`, the cytotoxicity at 70.5 h is 1.3%.

As for `CCOc1cc(CNCc2ncc[nH]2)c(Cl)cc1OC(C)C`, the cytotoxicity at 70.5 h stood at 20.6%.

With `CCCc1noc(C2CC(=O)N(C(C)(C)C)C2)n1` (stereo not drawn), the cytotoxicity at 70.5 h is -16%.

With `O=C(N1CCC2(CC1)[C@H](O)C[C@@H]2O)C1(c2ccccc2F)CC1`, the cytotoxicity at 70.5 h was 1.59%.

As to `CN(C)C(C(=O)NCC1(N(C)C)CCOCC1)c1ccccc1F` (stereo not drawn), the cytotoxicity at 70.5 h is -7.91%.

For the compound `Cc1ccc(C2(CN(C)Cc3snnc3C)CCNCC2)nc1`, the cytotoxicity at 70.5 h is -1.57%.

`O=C1CC(NCc2ccc(OC(F)F)cc2)CN1Cc1cccc(F)c1` (stereo not drawn): the cytotoxicity at 70.5 h is -4.49%.

Regarding `Cc1ccc(CN(C)C(=O)C(C)n2ccnc2C(C)C)o1` (stereo not drawn), the cytotoxicity at 70.5 h was -18.9%.

With `CN(Cc1cc2n(n1)CCNC2)Cc1noc(C2CCC2)n1`, the cytotoxicity at 70.5 h is -3.21%.

For the compound `COc1ccc(Cl)cc1C(=O)N1C[C@H](C(C)C)[C@@H](N)C1`, the cytotoxicity at 70.5 h came to 3.26%.

Take `CCc1nc(C)c(C(=O)N2CCNCC2C(=O)Nc2ccc(C)nc2)o1` (stereo not drawn): the cytotoxicity at 70.5 h is -3.52%.

With `NC(=O)c1ccc(CN2C(=O)C3(CCNCC3)Nc3ccccc32)cc1`, the cytotoxicity at 70.5 h worked out at 26.6%.

`CCc1nc2ccccc2n1C(CC)C(=O)N(C)Cc1noc(C)n1` (stereo not drawn): the cytotoxicity at 70.5 h was -19.8%.

With `CCCOC1CCCN(Cc2nc(-c3cccs3)oc2C)C1` (stereo not drawn), the cytotoxicity at 70.5 h was -1.07%.

With `CCCc1cnc(C)nc1N1CCC(Cn2cc(C(C)O)nn2)CC1` (stereo not drawn), the cytotoxicity at 70.5 h was -13.9%.

Consider `CC(C)c1nccc(CN2CCCC(O)(CN(C)C)C2)n1` (stereo not drawn), for which the cytotoxicity at 70.5 h was determined as 15%.

Regarding `Cc1nnsc1CN1CCCC1c1nc(-c2ccccc2)no1` (stereo not drawn), the cytotoxicity at 70.5 h is -3.77%.

With `COCCC(=O)NCC1COc2cc(OC)ccc2C1` (stereo not drawn), the cytotoxicity at 70.5 h was -12.7%.

Consider `Cc1ncsc1CCC(=O)NC1CCN(Cc2cccs2)CC1`, for which the cytotoxicity at 70.5 h was -11.5%.

`CC(C)c1nc(CN(C)C(=O)c2ccccc2C2CCNC2)cs1` (stereo not drawn): the cytotoxicity at 70.5 h is -8.26%.

For the compound `CC(CO)(CO)NC(=O)C1CCC(=O)N(Cc2ccc(Cl)cc2)C1` (stereo not drawn), the cytotoxicity at 70.5 h is -2.86%.

With `CCc1nc2c(N3CCC4(CC3)CC(=O)N(CC(C)C)C4)ncnc2o1`, the cytotoxicity at 70.5 h was found to be 1.84%.

Regarding `Cc1nc2c(c(NCc3cc4ccccc4s3)n1)CCNCC2`, the cytotoxicity at 70.5 h was -5.12%.

For the compound `COCCc1noc(CN(C)c2nc(C)nc(C)c2C)n1`, the cytotoxicity at 70.5 h came out at 25.3%.

Consider `O=C(CCc1nc(Cl)n[nH]1)N1CCC2(CCCN(CC3CCC3)C2=O)C1` (stereo not drawn), for which the cytotoxicity at 70.5 h was -7.56%.

As to `Cc1cc(NCCNc2cccnc2)nc(-c2ccccc2O)n1`, the cytotoxicity at 70.5 h was determined as 3.73%.

As for `CN1CC2(CCCN(c3cc(N4CCCCC4)ncn3)C2)OC1=O` (stereo not drawn), the cytotoxicity at 70.5 h turned out to be 12.1%.

Consider `Cc1cc(=O)c2ccccc2n1CC1CCN(C(C)C)C1` (stereo not drawn), for which the cytotoxicity at 70.5 h is -1.13%.

With `CN(Cc1ccon1)C1CCN(c2cccc(-c3cscn3)c2)CC1`, the cytotoxicity at 70.5 h was -4.4%.

On to `O=c1[nH]c(-c2ccccc2)nc2c1CCN(S(=O)(=O)N1CCCC1)C2`, for which the cytotoxicity at 70.5 h was -7.26%.

As for `Cc1ncc(C)c(N2CCC(CCc3ccccc3)(C(=O)O)CC2)n1`, the cytotoxicity at 70.5 h is -10.1%.

Consider `CCN1CCC(N2C[C@@H](C(=O)O)[C@H](c3cccc(OC)c3)C2)CC1`, for which the cytotoxicity at 70.5 h is -0.816%.

With `Cn1c(Cn2ccnc2)nnc1C1CCCN(CC(C)(C)C)C1` (stereo not drawn), the cytotoxicity at 70.5 h is -8.29%.

With `CNC(=O)[C@@H]1C[C@@H](N)CN1C(=O)CCSCc1ccc(F)cc1`, the cytotoxicity at 70.5 h worked out at 7.46%.

For the compound `COCC(=O)N1CCC2(CC1)CC(=O)N(Cc1ccc(Cl)cc1)C2`, the cytotoxicity at 70.5 h is -6.31%.

For `COCCc1noc(CN(C)C(=O)C2COc3ccccc3C2)n1` (stereo not drawn), the cytotoxicity at 70.5 h is -5.1%.

For `Cc1cc(CN2CCC(CNC(=O)c3ccc(C#N)cc3)C2)[nH]n1` (stereo not drawn), the cytotoxicity at 70.5 h is -0.514%.

For `CC(C)S(=O)(=O)N1CCC(Cc2cccc(C(=O)O)c2)C1` (stereo not drawn), the cytotoxicity at 70.5 h is -4.82%.

As for `C[C@H](N)C(=O)N1CCC(c2[nH]ncc2-c2ccccc2)CC1`, the cytotoxicity at 70.5 h was -4.88%.

`O=C(c1cccc(S(=O)(=O)NCCc2ccccn2)c1)N1CCOCC1`: the cytotoxicity at 70.5 h was -2.52%.

Turning to `COc1ccc(CN2CCC3(CCCN(C)C3=O)C2)c(Cl)c1OC` (stereo not drawn), the cytotoxicity at 70.5 h stood at 0.156%.

On to `COCCN(Cc1sccc1C)C(=O)C1CCCN(C(N)=O)C1` (stereo not drawn), for which the cytotoxicity at 70.5 h stood at 9.09%.

Regarding `O=C1CCCN1CCc1noc(-c2ccc3[nH]cnc3c2)n1`, the cytotoxicity at 70.5 h is -8.29%.

With `C/C(=C\c1ccco1)CN(C)C(C)c1ccccn1` (stereo not drawn), the cytotoxicity at 70.5 h worked out at 16.1%.

In the case of `Cc1cccc(OC2CN(C(=O)C3CC(=O)N(C(C)(C)C)C3)C2)c1` (stereo not drawn), the cytotoxicity at 70.5 h is -2.82%.

For the compound `Cc1cc(C)n(CC(C)NCc2cnc3c(C)cccn23)n1` (stereo not drawn), the cytotoxicity at 70.5 h is -2.32%.

Turning to `c1cc(-c2cn[nH]c2)ncc1CN1CCCCC1`, the cytotoxicity at 70.5 h is -6.79%.

Take `O=C(NCCc1nc(-c2cccnc2)no1)c1ccc(C2CCCO2)s1` (stereo not drawn): the cytotoxicity at 70.5 h was 6.34%.

Take `COCCN1C[C@H]2CC[C@@H]1CN(C(=O)CCc1n[nH]c(C)c1C)C2`: the cytotoxicity at 70.5 h was 6.62%.

Turning to `OC(CNc1ccncn1)CN1CCCCCC1` (stereo not drawn), the cytotoxicity at 70.5 h was -7.06%.

Turning to `O=C1NCCN(Cc2ccccc2)C1CC(=O)N1CCc2n[nH]cc2C1` (stereo not drawn), the cytotoxicity at 70.5 h was found to be 19.3%.

Consider `COCC(NC1CCN(CC(C)C)CC1)c1ccnn1C` (stereo not drawn), for which the cytotoxicity at 70.5 h is -6.73%.

Take `CN(Cc1ccc(-n2cccn2)cc1)c1nc(N)nc2c1CCNCC2`: the cytotoxicity at 70.5 h was determined as 12.6%.

Take `O[C@@]1(CNCCCOc2cccnc2)CCCN2CCCC[C@@H]21`: the cytotoxicity at 70.5 h was determined as 5.47%.

Take `Cc1cc(N2CCOC(C(F)(F)F)C2)nc(-c2ccccc2O)n1` (stereo not drawn): the cytotoxicity at 70.5 h was -6.3%.

Regarding `Cc1cc2nc(C(C)C)cc(N3CCC(Oc4ncccn4)CC3)n2n1`, the cytotoxicity at 70.5 h was found to be 48.7%.

`CSc1ccc(C(=O)N2C[C@H]3CC[C@@H]2CN(Cc2ccccc2)C3)cc1`: the cytotoxicity at 70.5 h was -0.304%.

Regarding `COCCCN1C(=O)CC[C@H]2CN(c3ccnc4ccccc34)CC[C@H]21`, the cytotoxicity at 70.5 h is -5.09%.

In the case of `CC(C)Oc1ccc(CN2CCCC(N3CCOCC3)C2)cc1CO` (stereo not drawn), the cytotoxicity at 70.5 h is -5.76%.

Consider `N#Cc1cccc(N2CCC(CO)(CCOc3ccccc3)CC2)n1`, for which the cytotoxicity at 70.5 h is -4.29%.

As for `Fc1ccc2[nH]c(C3CCCN3CCCn3cccn3)nc2c1` (stereo not drawn), the cytotoxicity at 70.5 h was -6.03%.

For the compound `Cc1nc(N2CCCOC(Cn3cccn3)C2)c2sccc2n1` (stereo not drawn), the cytotoxicity at 70.5 h is -2.92%.

In the case of `Cc1cc(C)c2[nH]c(CN3CCCC(N4CCOCC4)C3)cc(=O)c2c1` (stereo not drawn), the cytotoxicity at 70.5 h is -5.41%.

Regarding `COCC(=O)N1CCC2(CCCN(Cc3cc(OC)ccc3F)C2)C1` (stereo not drawn), the cytotoxicity at 70.5 h was -7.78%.

`CN(CCC(O)c1ccccc1)c1cc(N2CCOCC2)ncn1` (stereo not drawn): the cytotoxicity at 70.5 h is -11%.

Regarding `CSCc1noc(C2CCC(=O)N(CCCN3CCCC3=O)C2)n1` (stereo not drawn), the cytotoxicity at 70.5 h was -4.64%.

`CN(C)c1cnn(CC(=O)N2CCCCCC2)c(=O)c1`: the cytotoxicity at 70.5 h is -0.929%.

For the compound `CCc1nc(N)nc(NCCC(=O)N2CCCC2)c1C`, the cytotoxicity at 70.5 h was 23.5%.

In the case of `COCc1nc(CNC(=O)C(C)n2ccnc2C(C)C)no1` (stereo not drawn), the cytotoxicity at 70.5 h is -9.39%.

For the compound `O=C(C1CCC1)N1C[C@@H]2CC[C@H](C1)N(S(=O)(=O)c1cccnc1)C2`, the cytotoxicity at 70.5 h is -5.86%.

In the case of `Cn1ccc(C(=O)N2CCC3(CCC(=O)N(C4CCCC4)C3)CC2)n1`, the cytotoxicity at 70.5 h amounted to 12.2%.

As to `Cc1ccccc1N1CC(C)N(C(=O)CCn2cccn2)CC1=O` (stereo not drawn), the cytotoxicity at 70.5 h stood at 15.3%.

As for `CCc1ncc2c(n1)CN(C(=O)c1c(C)[nH]c3c1C(=O)CCC3)C2`, the cytotoxicity at 70.5 h is 1.67%.

As to `CC(C)(CN1CCC(Cc2ccc(CO)cc2)C1)N1CCOCC1` (stereo not drawn), the cytotoxicity at 70.5 h is -10.6%.

With `CN(Cc1cc(-c2ccccc2)no1)Cc1nccn1C`, the cytotoxicity at 70.5 h came to 9.3%.

For `N[C@H]1CN(S(=O)(=O)N2CCCCCC2)C[C@@H]1c1ccccc1`, the cytotoxicity at 70.5 h turned out to be 20%.

For `COc1ccc(-c2noc(Cn3cc4c(n3)CCC4)n2)c(OC)c1OC`, the cytotoxicity at 70.5 h was -2.31%.

Consider `COCCN1CCCC2(CCN(C(=O)c3cnc(O)cn3)C2)C1=O` (stereo not drawn), for which the cytotoxicity at 70.5 h was -6.54%.

Take `CCCn1ncc(-c2nc3c(cnn3CC)[nH]2)c1C`: the cytotoxicity at 70.5 h is -7.07%.

As to `O=C(O)CNc1cc(-c2cc(C(=O)NC3CC3)ccn2)c2cc[nH]c2n1`, the cytotoxicity at 70.5 h was -0.0958%.

Turning to `Cc1nn(C)cc1-c1ccnc(N(C)Cc2ccc(F)cc2)n1`, the cytotoxicity at 70.5 h is -4.85%.

As to `CC(C)CN1CC(C(=O)N(C)CCc2cn[nH]c2)CC1=O` (stereo not drawn), the cytotoxicity at 70.5 h was -6.49%.

With `Cc1nc(N2Cc3cnn(Cc4ccc(F)cc4)c3C2)no1`, the cytotoxicity at 70.5 h was 13.6%.
